System: thrombin
Assay: THROGA (thrombin generation assay): maximal thrombin generation in citrate blood or plasma of treated patients
Type: in vivo, human
Procedure: For maximal generation of thrombin, a small amount of anti-coagulant blood or plasma is used. For this, citrate, but also every other anti-coagulant may be used. 0.1 ml citrate blood or citrate plasma each are put into a reference tube (NaCl) and an activator tube (tissue factor+mixture of ellagic acid and phospholipids) in which a defined amount of hirudin is present. After closing the reaction vessels, the two containers are mixed in a mini shaker at 550 rpm at room temperature for 25 minutes. The activation of coagulation is subsequently terminated with a stop solution containing EDTA and the remaining not-consumed free hirudin is determined with a precise detection method. For the exact measurement of the hirudin content in the reaction vessels, a commercial available chromogenic hirudin determination method via chromogenic substrate (ECA, Ecarin Chromogenic Assay, WO 0046602) is employed.
For one determination, 100 μl citrate blood or citrate plasma, respectively, are put into one activator tube and one reference tube each. In order to avoid evaporation, the tubes should be closed after dissolving (“Lösen”). Subsequently, the tubes are put into a shaker for 30-60 minutes. In order to terminate the reaction after shaking, 1000 μl stop reagent are added into each tube and carefully mixed with the pipette.
In both THROGA-samples (reference tube and activator tube) the anti-thrombin units (ATU) are now determined via ECA-H.
From the ATU determined in reference tube and activator tube, respectively, the thrombin units formed in the plasma or blood sample are calculated with the following formula: ETP=R−A • ETP maximal endogenic thrombin potential, thrombin units formed in 1 ml blood or plasma • R anti-thrombin units in the reference tube (ATU/ml blood or plasma) • A anti-thrombin units in the activator tube (ATU/ml blood or plasma) Generating a Reference Curve

[1] = patient two under falithrom, blood
[2] = patient two under falithrom, plasma

Row | Compound | ATU/ml; TU/ml (generated thrombin, THROGA-value), blood (patient one, state after cerebral insult, after 8 weeks of clopidogrel, 1.5 tablets daily (112.5 mg), blood, norm 78±13 TU/ml, 99.5 prior to therapy) [TU/ml] | THROGA-values in all further controls (patient one, under clopidogrel therapy) | ATU/ml; TU/ml (generated thrombin, THROGA-value), plasma (patient one, after 8 weeks of clopidogrel, 1.5 tablets daily (112.5 mg), plasma, N: 122±19 TU/ml, 118.5 prior to therapy) [TU/ml] | % of the normal generable thrombin amount in the blood [1] [%] | generated thrombin in the blood [1] [TU/ml] | bleeding tendency (patient two under falithrom, judged from the THROGA-value in blood) | % of the normal plasma value [2] [%] | generated thrombin in the plasma [2] [TU/ml] | Difference control (A) minus activated sample (B), blood (patient two, thrombophilia upon gammopathy, thrombosis prophylaxis with falithrom, blood, use of the kit) [ATU/ml] | Difference control (A) minus activated sample (B), plasma (patient two, thrombosis prophylaxis with falithrom, plasma, use of the kit) [ATU/ml]
1 | COC(=O)[C@H](c1ccccc1Cl)N1CCc2sccc2C1 [clopidogrel] | 82.2 | normal | 116.9 |  |  |  |  |  |  | 
2 | CCC(c1ccccc1)c1c(O)c2ccccc2oc1=O (stereo not shown) [falithrom] |  |  |  | 60 | 46.3 | no bleeding tendency can be observed | 32 | 39.3 | 46.3 | 39.3

From patent US8163513B2, “Method for determining the total clotting activity of a blood or plasma sample” (JenAffin GmbH, priority 2005, dated 2012)
